Reference: US12496298B2, “Natural killer cells” (Imperial College Innovations Limited, priority 2017, dated 2025)
Entries after “also recorded” stand apart in the source; their conditions may differ.

Tested on: HPCs isolated from wild type, E4bp4 knockout and heterozygous mice
Experiment: NK cell production from HPCs isolated from WT, E4bp4 Het and E4bp4 KO mice
Type: cell-based, mouse
Method: FIG. 7: HPCs isolated from either wild type (WT), E4bp4 knockout (KO) or heterozygous (Het) mice were cultured with the addition of 5 or 10 μM SR8278. At Day 9, percentage of NK cells was quantified using flow cytometry. Graph showing relative mature mouse NK cell (NK1.1^+ CD3^−) production compared to the ‘No drug’ control in experiments with (A) WT, (B) Het and (C) E4bp4 KO mice. (D) Representative flow cytometry results with percentage of NK cells shown for the addition of 10 μM SR8278. Results were averaged from two experiments with four repeats each and the error bars represent the mean+SD. Asterisks indicate significant differences from the two annotated results (* is P≤0.01 and ** is P≤0.001) based on Mann-Whitney test.
Following the experiment with GSK4112, it was predicted that SR8278 acts through the pathway involving REV-ERB and E4bp4. […] Cell cultures were performed as previously (FIG. 3), where SR8278 was added on Day 2 of the culture and NK cell production was measured by flow cytometry. […]
Cells to be analysed by flow cytometry were passed through 40 μm cell strainers to remove clumps and washed with PBS buffer, centrifuged at 800 g for 2 minutes and resuspended in 100 μl fluorescent activated cell sorting (FACS) buffer (PBS plus 1% BSA) with appropriate fluorochrome conjugated antibodies at a dilution of 1 in 300. […]

CCOC(=O)C1Cc2ccccc2CN1C(=O)c1ccc(SC)s1 (centres unmarked) [SR8278, 1,2,3,4-Tetrahydro-2-[[5-(methylthio)-2-thienyl]carbonyl]-3-isoquinolinecarboxylic acid ethyl ester]
percentage of NK cells produced (HPCs from E4bp4 KO mice, regardless of concentration): absent of NK cells; also recorded: no effect
percentage of NK cells produced compared to 'No drug' control (HPCs from WT mice, 5 μM and 10 μM added Day 2): largest significant increase
